System: postpartum sows
Assay: Single timed injection 96 hours post-weaning and single timed insemination without estrus detection in postpartum sows (Example 3)
Assay type: in vivo, swine
Details: 50 mcg at 96 hours post-weaning
Procedure: Approximately 170 postpartum sows were randomly divided into two equal groups comprised of controls and treated. Following weaning, the controls were detected for estrus and bred following the normal standard operating procedures for the farms on which they resided. The treated sows received a 50 mcg dose of deslorelin in SAIB at 96 hours post-weaning and were bred with a single insemination 28+/−2 hours later with no regard to estrus detection. The sows were examined for pregnancy by ultrasound at 21 days and slaughtered around 28 days post breeding. The entire reproductive tract was removed and corpora lutea and embryos were counted.

With CCNC(=O)[C@@H]1CCCN1C(=O)[C@H](CCCN=C(N)N)NC(=O)[C@H](CC(C)C)NC(=O)[C@@H](Cc1c[nH]c2ccccc12)NC(=O)[C@H](Cc1ccc(O)cc1)NC(=O)[C@H](CO)NC(=O)[C@H](Cc1c[nH]c2ccccc12)NC(=O)[C@H](Cc1cnc[nH]1)NC(=O)[C@@H]1CCC(=O)N1 [Deslorelin, deslorelin] the “Sows Pregnant” value (single insemination 28+/-2 hours later, 84 in group) was 60 and the “Embryo Survival” value (slaughter around 28 days post breeding) was 64%.
